Measured values taken from patent publication US9271993B2, “Treatment of bacterial infectious diseases” (priority 2010, dated 2016).
Values after ≈ are worked out from the molar mass of the structure shown. Where two headings read alike, the source gives them in different places.

What was measured:
[1] = tested on: clinical methicillin resistant Staphylococcus aureus (MRSA) isolates; test: MIC against clinical MRSA isolates, LB microdilution assay; details: Staphylococcus aureus, MRSA
Procedure: Activity was assessed by determination of minimal inhibitory concentrations (MIC), as described in Pfister et al., Antimicrob. […] Cultures from single colonies were grown in LB medium and used for MIC tests in a microtiter plate format. Starting cultures contained 200 μl of bacterial cells at an optical density of 0.025 at 600 nm, and the respective drug was added in twofold series of dilution.

[2] = General toxicity in guinea pigs; format: in vivo; details: for observations (general toxicity): once daily for 14 days, monitored additional 14 days
From the text: Guinea pigs received a systemic application of aminoglycosides once daily in the dosing indicated in Table 9 for 14 days and were then monitored for an additional 14 days.

cytohybrid ribosomes = test: Ribosomal drug susceptibility (MIC) of recombinant bacteria; parameters: MIC, cytohybrid ribosomes: unit not given beside the values; details: for MIC, cytohybrid ribosomes: Table 7, 72 h incubation
E. coli = test: MIC against gram-negative bacteria; format: cell-based; details: Escherichia coli, read-out: MIC
From the text: Agents Chemother. 2003, 47:1496-1502.

M. kansasii = test: Drug susceptibility of non-tuberculous slow-growing mycobacteria, MGIT960; format: cell-based
[3] = guinea pig
From the text: “Treshold shift” is the difference in auditory threshold before and three weeks after treatment.
Guinea pigs received a systemic application of aminoglycosides once daily in the dosing indicated for 14 days, and were allowed to rest for 14 days before post-treatment ABR was taken.

[4] = tested on: Cochlear explants from newborn mice; test: Cochleatoxicity in vitro, hair cell loss in cochlear explants; format: cell-based
Procedure: FIG. 1: Cochleatoxicity in vitro
(a) Dose-response relationship of drug-induced hair cell loss in cochlear explants. Hair cell loss was quantified along the entire length of the explant and plotted against drug concentration. %=% outer hair cells missing.
Cochlear explants from newborn mice were treated with 0.5 mM aminoglycoside compound for 24 h; subsequently hair cell damage was assessed by epifluorescence microscopy.

bacterial ribosomes = test: Ribosomal drug susceptibility (MIC) of recombinant bacteria; parameters: MIC, bacterial ribosomes: unit not given beside the values; details: for MIC, bacterial ribosomes: Table 7, 72 h incubation
M. bolletii = test: MIC against non-tuberculous rapidly-growing mycobacteria, microdilution; format: cell-based; details: Mycobacteroides abscessus, read-out: minimal inhibitory concentration (MIC)
Procedure: (§1) Activity of apramycin was assessed in standard microdilution assays and is expressed as minimal inhibitory concentration (MIC) in μg/ml.

M. massiliense = test: as above; format: cell-based; details: Mycobacteroides abscessus, read-out: minimal inhibitory concentration (MIC)
Procedure: as §1

M. abscessus = test: as above; format: cell-based; details: Mycobacteroides abscessus; strain 500039/08 M. abscessus; read-out: minimal inhibitory concentration (MIC)
Procedure: as §1

mitohybrid ribosomes = test: Ribosomal drug susceptibility (MIC) of recombinant bacteria; parameters: MIC, mitohybrid ribosomes: unit not given beside the values; details: for MIC, mitohybrid ribosomes: Table 7, 72 h incubation
M. avium-intracellulare = test: Drug susceptibility of non-tuberculous slow-growing mycobacteria, MGIT960; format: cell-based
[5] = MRSA AG042, strain 101-06R Gm^R
[6] = E. coli AG01, clin. isol. (Gm^S)
[7] = E. coli AG02, clin. isol (Gm^S)
[8] = E. coli AG03, clin. isol (Gm^R)
[9] = E. coli AG07, BM13/pIP135, resistance mechanism AAC(3)
[10] = E. coli AG08, BM13/pIP055, resistance mechanism ANT(2″)
[11] = E. coli AG09, AAC(6′)-1B, resistance mechanism AAC(6′)
[12] = E. coli AG36, HB101/pAT197, resistance mechanism ANT(4′)
[13] = E. coli AG37, HB101/pAG21-1, resistance mechanism APH(3′)
[14] = strain 177217/10 M. massiliense
[15] = strain 186139/07 M. massiliense
[16] = strain 500044/09 M. massiliense

CNC1C(OC2OC(CO)C(N)C(O)C2O)OC2CC(N)C(OC3C(N)CC(N)C(O)C3O)OC2C1O (centres unmarked) [Apramycin]
MIC ([1]; MRSA AG038, strain 70-26S Gm^S): 8 µg/mL (≈ 14.8 µM) | MIC ([1]; MRSA AG040, strain 87-26S Gm^S): 8 µg/mL (≈ 14.8 µM) | MIC ([1]; MRSA AG041, strain 98-25S Gm^S): 8 µg/mL (≈ 14.8 µM) | MIC [1, 5]: 8 µg/mL (≈ 14.8 µM) | MIC ([1]; MRSA AG043, strain 01-08R Gm^R): 16 to 32 µg/mL (≈ 29.7 to 59.3 µM) | MIC ([1]; MRSA AG044, strain 07-12R Gm^R): 16 µg/mL (≈ 29.7 µM) | MIC ([1]; MRSA AG045, strain 08-12R Gm^R): 8 to 16 µg/mL (≈ 14.8 to 29.7 µM) | MIC ([1]; MRSA AG046, strain 12-06R Gm^R): 8 to 16 µg/mL (≈ 14.8 to 29.7 µM) | MIC ([1]; MRSA AG047, strain 18-06R Gm^R): 8 to 16 µg/mL (≈ 14.8 to 29.7 µM) | MIC ([1]; MRSA AG048, strain 20-06R Gm^R): 8 to 16 µg/mL (≈ 14.8 to 29.7 µM) | MIC ([1]; MRSA AG049, strain 23-12R Gm^R): 8 to 16 µg/mL (≈ 14.8 to 29.7 µM) | MIC ([1]; MRSA AG050, strain 31-06R Gm^R): 4 to 8 µg/mL (≈ 7.41 to 14.8 µM) | MIC ([1]; MRSA AG051, strain 36-06R Gm^R): 8 µg/mL (≈ 14.8 µM) | MIC ([1]; MRSA AG052, strain 53-14I Gm^R): 8 µg/mL (≈ 14.8 µM) | MIC ([1]; MRSA AG053, strain 56-06R Gm^R): 8 µg/mL (≈ 14.8 µM) | observations (general toxicity) ([2]; 152 mg/kg base (132 mg/kg gentamicin base equivalent)): normal weight gain | observations (general toxicity) ([2]; 184 mg/kg base (160 mg/kg gentamicin base equivalent)): normal weight gain | observations (general toxicity) ([2]; 217 mg/kg base (188 mg/kg gentamicin base equivalent)): normal weight gain | observations (general toxicity) ([2]; 355 mg/kg base (309 mg/kg gentamicin base equivalent)): less weight gain | Kidney histopathology, interpretation ([2]; 432 mg/kg): Mild, multifocal interstitial lymphoplasmacytic inflammation | observations (general toxicity) ([2]; 432 mg/kg base (376 mg/kg gentamicin base equivalent)): less weight gain | Kidney histopathology, renal mass affected in the sections ([2]; 432 mg/kg, lymphoplasmacytic aggregates in the renal interstitium): less than 5% | Kidney histopathology, interpretation ([2]; 649 mg/kg): Mild, multifocal tubular nephrosis | observations (general toxicity) ([2]; 649 mg/kg base (564 mg/kg gentamicin base equivalent)): less weight gain | Kidney histopathology, renal mass affected in the sections ([2]; 649 mg/kg, foci of tubular degeneration and regeneration in the superficial cortex): less than 5% | necropsy findings at the end of the experiment ([2]; one animal each at 432 and 649 mg/kg): no significant lesions or gross findings were observed | MIC, cytohybrid ribosomes (cytohybrid ribosomes): >1024 | MIC, bacteria with cytohybrid ribosome (cytohybrid ribosomes; Table 10): >256.0 µg/mL | MIC (E. coli; [6]): 16 µg/mL (≈ 29.7 µM) | MIC (E. coli; [7]): 16 to 32 µg/mL (≈ 29.7 to 59.3 µM) | MIC (E. coli; [8]): 16 to 32 µg/mL (≈ 29.7 to 59.3 µM) | MIC (E. coli; E. coli AG06, BM13): 4 µg/mL (≈ 7.41 µM) | MIC (E. coli; [9]): 8 µg/mL (≈ 14.8 µM) | MIC (E. coli; [10]): 4 µg/mL (≈ 7.41 µM) | MIC (E. coli; [11]): 8 µg/mL (≈ 14.8 µM) | MIC (E. coli; [12]): 4 µg/mL (≈ 7.41 µM) | MIC (E. coli; [13]): 4 µg/mL (≈ 7.41 µM) | Activity (resistant/susceptible) (M. kansasii; strain 177227/06 M. kansasii, 1 μg/ml): R | Activity (resistant/susceptible) (M. kansasii; strain 177227/06 M. kansasii, 4 μg/ml): S | Activity (resistant/susceptible) (M. kansasii; strain 177227/06 M. kansasii, 10 μg/ml): S | Activity (resistant/susceptible) (M. kansasii; strain 180235/06 M. kansasii, 1 μg/ml): R | Activity (resistant/susceptible) (M. kansasii; strain 180235/06 M. kansasii, 4 μg/ml): S | Activity (resistant/susceptible) (M. kansasii; strain 180235/06 M. kansasii, 10 μg/ml): S | in vivo auditory response (auditory brain stem response, threshold shift at 12 kHz) [3]: substantially less affected | In vitro cochleatoxicity (drug-induced hair cell loss in cochlear explants, dose-response) [4]: significantly less than that of gentamicin | Hair cell count ([4]; mouse, 24 h, 0.5 mM): no hair cells missing (<5%) | inner and outer hair cells missing / lost ([4]; mouse, 24 h, 0.5 mM): < 5% | MIC, bacterial ribosomes (bacterial ribosomes): 1-2 | MIC, wild type bacteria (bacterial ribosomes; Table 10): 1.0 to 2.0 µg/mL | MIC (M. bolletii; strain 179639/10 M. bolletii): 4 µg/mL (≈ 7.41 µM) | MIC (M. bolletii; strain 181739/08 M. bolletii): 4 µg/mL (≈ 7.41 µM) | MIC (M. bolletii; strain 183177/08 M. bolletii): 2 µg/mL (≈ 3.71 µM) | MIC (M. massiliense; [14]): 4 µg/mL (≈ 7.41 µM) | MIC (M. massiliense; [15]): 4 µg/mL (≈ 7.41 µM) | MIC (M. massiliense; [16]): 2 µg/mL (≈ 3.71 µM) | MIC (M. abscessus): 0.5 µg/mL (≈ 0.927 µM) | MIC, mitohybrid ribosomes (mitohybrid ribosomes): 1024 | MIC, bacteria with mitohybrid ribosome (mitohybrid ribosomes; Table 10): >256.0 µg/mL | Activity (resistant/susceptible) (M. avium-intracellulare; strain 182034/06 M. avium-intracellulare, 1 μg/ml): R | Activity (resistant/susceptible) (M. avium-intracellulare; strain 182034/06 M. avium-intracellulare, 4 μg/ml): S | Activity (resistant/susceptible) (M. avium-intracellulare; strain 182034/06 M. avium-intracellulare, 10 μg/ml): S | Activity (resistant/susceptible) (M. avium-intracellulare; strain 182124/07 M. avium-intracellulare, 1 μg/ml): R | Activity (resistant/susceptible) (M. avium-intracellulare; strain 182124/07 M. avium-intracellulare, 4 μg/ml): S | Activity (resistant/susceptible) (M. avium-intracellulare; strain 182124/07 M. avium-intracellulare, 10 μg/ml): S | Activity (resistant/susceptible) (M. avium-intracellulare; strain 182550/07 M. avium-intracellulare, 1 μg/ml): R | Activity (resistant/susceptible) (M. avium-intracellulare; strain 182550/07 M. avium-intracellulare, 4 μg/ml): S | Activity (resistant/susceptible) (M. avium-intracellulare; strain 182550/07 M. avium-intracellulare, 10 μg/ml): S

NC[C@H]1O[C@H](O[C@H]2[C@H](O)[C@@H](O[C@H]3O[C@H](CO)[C@@H](O)[C@H](N)[C@H]3O)[C@H](N)C[C@@H]2N)[C@H](N)C[C@@H]1O [Tobramycin]
MIC [1]: 128 to 256 µg/mL (≈ 274 to 548 µM) | MIC ([1]; MRSA AG038, strain 70-26S Gm^S): 0.5 to 1 µg/mL (≈ 1.07 to 2.14 µM) | MIC ([1]; MRSA AG040, strain 87-26S Gm^S): ≥ 256 µg/mL | MIC ([1]; MRSA AG041, strain 98-25S Gm^S): 0.5 to 1 µg/mL (≈ 1.07 to 2.14 µM) | MIC [1, 5]: ≥ 256 µg/mL | MIC ([1]; MRSA AG043, strain 01-08R Gm^R): 32 µg/mL (≈ 68.4 µM) | MIC ([1]; MRSA AG044, strain 07-12R Gm^R): 8 µg/mL (≈ 17.1 µM) | MIC ([1]; MRSA AG045, strain 08-12R Gm^R): 8 µg/mL (≈ 17.1 µM) | MIC ([1]; MRSA AG047, strain 18-06R Gm^R): ≥ 256 µg/mL | MIC ([1]; MRSA AG048, strain 20-06R Gm^R): ≥ 256 µg/mL | MIC ([1]; MRSA AG049, strain 23-12R Gm^R): 8 to 16 µg/mL (≈ 17.1 to 34.2 µM) | MIC ([1]; MRSA AG050, strain 31-06R Gm^R): 32 to 64 µg/mL (≈ 68.4 to 137 µM) | MIC ([1]; MRSA AG051, strain 36-06R Gm^R): 32 to 64 µg/mL (≈ 68.4 to 137 µM) | MIC ([1]; MRSA AG052, strain 53-14I Gm^R): 8 to 16 µg/mL (≈ 17.1 to 34.2 µM) | MIC ([1]; MRSA AG053, strain 56-06R Gm^R): 16 to 32 µg/mL (≈ 34.2 to 68.4 µM) | MIC, cytohybrid ribosomes (cytohybrid ribosomes): 512 | MIC (E. coli; [6]): 4 to 8 µg/mL (≈ 8.56 to 17.1 µM) | MIC (E. coli; [7]): 2 µg/mL (≈ 4.28 µM) | MIC (E. coli; [8]): 32 µg/mL (≈ 68.4 µM) | MIC (E. coli; E. coli AG06, BM13): 0.5 µg/mL (≈ 1.07 µM) | MIC (E. coli; [9]): 4 µg/mL (≈ 8.56 µM) | MIC (E. coli; [10]): 8 to 64 µg/mL (≈ 17.1 to 137 µM) | MIC (E. coli; [11]): 64 to 128 µg/mL (≈ 137 to 274 µM) | MIC (E. coli; [12]): 16 to 32 µg/mL (≈ 34.2 to 68.4 µM) | MIC (E. coli; [13]): 1 to 2 µg/mL (≈ 2.14 to 4.28 µM) | MIC, bacterial ribosomes (bacterial ribosomes): 1 | MIC (M. bolletii; strain 179639/10 M. bolletii): 32 µg/mL (≈ 68.4 µM) | MIC (M. bolletii; strain 181739/08 M. bolletii): 32 µg/mL (≈ 68.4 µM) | MIC (M. bolletii; strain 183177/08 M. bolletii): 16 µg/mL (≈ 34.2 µM) | MIC (M. massiliense; [14]): 32 µg/mL (≈ 68.4 µM) | MIC (M. massiliense; [15]): 16 µg/mL (≈ 34.2 µM) | MIC (M. massiliense; [16]): 8 µg/mL (≈ 17.1 µM) | MIC (M. abscessus): 4 µg/mL (≈ 8.56 µM) | MIC, mitohybrid ribosomes (mitohybrid ribosomes): 128
